Test results as given in PubChem BioAssay AID256 (DTP/NCI, 2004).
Where “and” joins values, the source holds several entries; their conditions need not be identical. Identical values can stand only once. Toxic doses and inconclusive results are not listed.

Test system: CD2F1 mice, L1210 leukemia ip, survival T/C
Test: NCI In Vivo Anticancer Drug Screen. Data for tumor model L1210 Leukemia (intraperitoneal) in CD2F1 (CDF1) mice
Details: higher = longer survival
Protocol: The antitumor activity of compounds was measured in mice bearing transplantable tumors. Survival or tumor size were measured and the results are expressed as the measurement made in the treated group (T) divided by the measurement made in the vehicle treated control group (C). The tumor model used in this assay is L1210 Leukemia (intraperitoneal) in CD2F1 (CDF1) mice

[1] = endpoint: mean survival time, dose: 100.0 mg/kg/injection, schedule: Q04DX003 (ip), vehicle: saline with Tween-80
[2] = endpoint: mean survival time, dose: 200.0 mg/kg/injection, schedule: Q04DX003 (ip), vehicle: saline with Tween-80
[3] = endpoint: mean survival time, dose: 400.0 mg/kg/injection, schedule: Q04DX003 (ip), vehicle: saline with Tween-80
[4] = endpoint: mean survival time, dose: 100.0 mg/kg/injection, schedule: Q01DX009 (ip), vehicle: saline with Tween-80
[5] = endpoint: mean survival time, dose: 200.0 mg/kg/injection, schedule: Q01DX009 (ip), vehicle: saline with Tween-80
[6] = endpoint: mean survival time, dose: 400.0 mg/kg/injection, schedule: Q01DX009 (ip), vehicle: saline with Tween-80
[7] = endpoint: mean survival time, dose: 50.0 mg/kg/injection, schedule: Q01DX009 (ip), vehicle: saline with Tween-80
[8] = endpoint: mean survival time, dose: 100.0 mg/kg/injection, schedule: Q04DX002 (ip), vehicle: saline with Tween-80
[9] = endpoint: mean survival time, dose: 200.0 mg/kg/injection, schedule: Q04DX002 (ip), vehicle: saline with Tween-80

CC1=C(C)C2(C)C(C)C2(C)C1C (configuration not stated)
T/C [1]: 90 % of control
T/C [2]: 110 % of control
T/C [3]: 98 % of control

O=C1CCCCCC2CC12 (configuration not stated)
T/C [4]: 94 % of control
T/C [5]: 102 % of control
T/C [6]: 94 % of control

N#Cc1cn(C2CCCCC2)c2[nH]c(=O)cc(O)c12
T/C (endpoint: mean survival time, dose: 100.0 mg/kg/injection, schedule: Q04DX003 (ip), vehicle: saline): 97 % of control
T/C (endpoint: mean survival time, dose: 200.0 mg/kg/injection, schedule: Q04DX003 (ip), vehicle: saline): 101 % of control
T/C (endpoint: mean survival time, dose: 400.0 mg/kg/injection, schedule: Q04DX003 (ip), vehicle: saline): 121 % of control

CN(C)/N=N\c1ncn(C2OC(CO)C(O)C2O)c1C(N)=O (configuration not stated)
T/C (endpoint: mean survival time, dose: 100.0 mg/kg/injection, schedule: Q01DX005 (ip), vehicle: saline): 123 % of control

CCNc1ncc2ccccc2c1-c1ccc(NCCCl)cc1
T/C (endpoint: mean survival time, dose: 25.0 mg/kg/injection, schedule: Q04DX003 (ip), vehicle: other): 98 % of control
T/C (endpoint: mean survival time, dose: 50.0 mg/kg/injection, schedule: Q04DX003 (ip), vehicle: other): 95 % of control
T/C (endpoint: mean survival time, dose: 100.0 mg/kg/injection, schedule: Q04DX003 (ip), vehicle: other): 87 % of control
T/C (endpoint: mean survival time, dose: 200.0 mg/kg/injection, schedule: Q04DX003 (ip), vehicle: other): 105 % of control
T/C (endpoint: mean survival time, dose: 400.0 mg/kg/injection, schedule: Q04DX003 (ip), vehicle: other): 90 % of control

COc1ccc(CC(=O)O)cc1OC (tested in a mixture with another compound)
T/C [4]: 96 % of control
T/C (endpoint: mean survival time, dose: 100.0 mg/kg/injection, schedule: Q04DX003 (ip), vehicle: saline sonified): 101 % of control
T/C [5]: 98 % of control
T/C (endpoint: mean survival time, dose: 200.0 mg/kg/injection, schedule: Q04DX003 (ip), vehicle: saline sonified): 101 % of control
T/C [6]: 102 % of control
T/C (endpoint: mean survival time, dose: 400.0 mg/kg/injection, schedule: Q04DX003 (ip), vehicle: saline sonified): 96 % of control

CC(=N\[O-])/C(C)=N/O.CC(=N\[O-])/C(C)=N/O.CC(=O)[O-].CC(=O)[O-].O.[Rh+2].[Rh+2]
T/C (endpoint: mean survival time, dose: 0.78 mg/kg/injection, schedule: Q01DX009 (ip), vehicle: saline): 88 % of control
T/C (endpoint: mean survival time, dose: 3.13 mg/kg/injection, schedule: Q01DX009 (ip), vehicle: saline): 96 % of control
T/C (endpoint: mean survival time, dose: 6.25 mg/kg/injection, schedule: Q01DX009 (ip), vehicle: saline): 91 % of control
T/C (endpoint: mean survival time, dose: 12.5 mg/kg/injection, schedule: Q01DX009 (ip), vehicle: Klucel (hydroxypropylcellulose) (HPC)): 95 % of control
T/C (endpoint: mean survival time, dose: 12.5 mg/kg/injection, schedule: Q01DX009 (ip), vehicle: saline): 93 % of control

O=CC(C=O)[N+](=O)[O-]
T/C (endpoint: mean survival time, dose: 100.0 mg/kg/injection, schedule: Q01DX001 (ip), vehicle: saline): 103 % of control
T/C (endpoint: mean survival time, dose: 200.0 mg/kg/injection, schedule: Q01DX001 (ip), vehicle: saline): 103 % of control
T/C (endpoint: mean survival time, dose: 400.0 mg/kg/injection, schedule: Q01DX001 (ip), vehicle: saline): 97 % of control

COC(=O)C(C)NC(=O)CCNC(=O)OCc1ccccc1 (configuration not stated)
T/C [1]: 93 % of control
T/C [2]: 93 % of control
T/C [3]: 90 % of control

C1CC[N-]CC1.CC(=N\O)/C(C)=N/O.CC(=N\O)/C(C)=N/O.[CH2-]CCN1CCOCC1.[Co+2]
T/C (endpoint: mean survival time, dose: 25.0 mg/kg/injection, schedule: Q01DX009 (ip), vehicle: saline with Tween-80): 105 % of control
T/C (endpoint: mean survival time, dose: 25.0 mg/kg/injection, schedule: Q04DX003 (ip), vehicle: saline with Tween-80): 103 % of control
T/C [7]: 105 % of control
T/C (endpoint: mean survival time, dose: 50.0 mg/kg/injection, schedule: Q04DX003 (ip), vehicle: saline with Tween-80): 106 % of control
T/C [1]: 112 % of control

CCCCCCCCCCCCCCCC(=O)Nc1ccc(CC)cc1
T/C [8]: 103 % of control
T/C [9]: 91 % of control
T/C (endpoint: mean survival time, dose: 400.0 mg/kg/injection, schedule: Q04DX002 (ip), vehicle: saline with Tween-80): 95 % of control

O[C@H](CN1CC1)[C@@H](O)CN1CC1
T/C (endpoint: mean survival time, dose: 0.25 mg/kg/injection, schedule: Q01DX007 (ip), vehicle: saline): 150 % of control
T/C (endpoint: mean survival time, dose: 0.25 mg/kg/injection, schedule: Q01DX009 (ip), vehicle: saline): 170 % of control and 177 % of control and 178 % of control
T/C (endpoint: mean survival time, dose: 0.5 mg/kg/injection, schedule: Q01DX007 (ip), vehicle: saline): 192 % of control
T/C (endpoint: mean survival time, dose: 0.5 mg/kg/injection, schedule: Q01DX009 (ip), vehicle: saline): 165 % of control and 197 % of control and 205 % of control
T/C (endpoint: mean survival time, dose: 0.5 mg/kg/injection, schedule: Q03DX003 (ip), vehicle: saline): 166 % of control
T/C (endpoint: mean survival time, dose: 0.5 mg/kg/injection, schedule: Q04DX003 (ip), vehicle: saline): 164 % of control
T/C (endpoint: mean survival time, dose: 1.0 mg/kg/injection, schedule: Q01DX007 (ip), vehicle: saline): 94 % of control
T/C (endpoint: mean survival time, dose: 1.0 mg/kg/injection, schedule: Q01DX009 (ip), vehicle: saline): 116 % of control and 95 % of control
T/C (endpoint: mean survival time, dose: 1.0 mg/kg/injection, schedule: Q03DX003 (ip), vehicle: saline): 202 % of control
T/C (endpoint: mean survival time, dose: 1.0 mg/kg/injection, schedule: Q04DX003 (ip), vehicle: saline): 184 % of control

O=c1[nH]c(=O)c2n[nH]nc2[nH]1
T/C (endpoint: mean survival time, dose: 23.0 mg/kg/injection, schedule: Q01DX009 (ip), vehicle: saline): 104 % of control
T/C (endpoint: mean survival time, dose: 35.0 mg/kg/injection, schedule: Q01DX009 (ip), vehicle: saline): 101 % of control
T/C (endpoint: mean survival time, dose: 50.0 mg/kg/injection, schedule: Q01DX009 (ip), vehicle: saline): 98 % of control

COc1ccc(C2=CCCCc3cc(O)c(OC)cc32)cc1
T/C [7]: 100 % of control
T/C [4]: 100 % of control
T/C [5]: 100 % of control

CN1C(=O)C(C(O)(c2ccccc2)c2ccccc2)C1c1ccccc1 (configuration not stated)
T/C (endpoint: mean survival time, dose: 50.0 mg/kg/injection, schedule: Q04DX002 (ip), vehicle: saline with Tween-80): 96 % of control
T/C [8]: 96 % of control
T/C [9]: 96 % of control

Nc1cnc2nc(N)[nH]c(=O)c2c1
T/C (endpoint: mean survival time, dose: 100.0 mg/kg/injection, schedule: Q01DX009 (ip), vehicle: saline sonified): 97 % of control
T/C [1]: 93 % of control
T/C (endpoint: mean survival time, dose: 200.0 mg/kg/injection, schedule: Q01DX009 (ip), vehicle: saline sonified): 102 % of control
T/C [2]: 93 % of control
T/C (endpoint: mean survival time, dose: 400.0 mg/kg/injection, schedule: Q01DX009 (ip), vehicle: saline sonified): 93 % of control
T/C [3]: 95 % of control

O=C1C2C(C(=O)N1c1ccc(OCc3ccccc3)cc1)C1c3ccccc3C2C2CCCCN21 (configuration not stated)
T/C (endpoint: mean survival time, dose: 25.0 mg/kg/injection, schedule: Q01DX009 (ip), vehicle: water): 100 % of control
T/C (endpoint: mean survival time, dose: 50.0 mg/kg/injection, schedule: Q01DX009 (ip), vehicle: water): 86 % of control

O=C(/C=C/c1ccccc1)N1CCCCC1
T/C [1]: 98 % of control
T/C [2]: 89 % of control
T/C [3]: 94 % of control

Nc1c(Cl)ncnc1NNC(=O)OCc1ccccc1
T/C (endpoint: mean survival time, dose: 100.0 mg/kg/injection, schedule: Q01DX001 (ip), vehicle: carboxymethylcellulose (CMC)): 104 % of control
T/C (endpoint: mean survival time, dose: 200.0 mg/kg/injection, schedule: Q01DX001 (ip), vehicle: carboxymethylcellulose (CMC)): 98 % of control
T/C (endpoint: mean survival time, dose: 400.0 mg/kg/injection, schedule: Q01DX001 (ip), vehicle: carboxymethylcellulose (CMC)): 103 % of control

NC(=O)N/N=C/c1ccccc1N
T/C [1]: 97 % of control
T/C [2]: 108 % of control
T/C [3]: 98 % of control

CC(C)N1C(=O)N(Cl)C2C1N(Cl)C(=O)N2Cl (configuration not stated)
T/C (endpoint: median survival time, dose: 1.5 mg/kg/injection, schedule: Q01DX009 (ip), vehicle: saline with Tween-80): 101 % of control
T/C (endpoint: median survival time, dose: 3.0 mg/kg/injection, schedule: Q01DX009 (ip), vehicle: saline with Tween-80): 102 % of control
T/C (endpoint: median survival time, dose: 6.0 mg/kg/injection, schedule: Q01DX009 (ip), vehicle: saline with Tween-80): 93 % of control
T/C (endpoint: median survival time, dose: 12.0 mg/kg/injection, schedule: Q01DX009 (ip), vehicle: saline with Tween-80): 103 % of control
T/C (endpoint: median survival time, dose: 24.0 mg/kg/injection, schedule: Q01DX009 (ip), vehicle: saline with Tween-80): 104 % of control
T/C (endpoint: median survival time, dose: 25.0 mg/kg/injection, schedule: Q01DX009 (ip), vehicle: saline with Tween-80): 100 % of control
